These results are taken from patent publication US20070086956A1, “Method for accelerating the rate of mucociliary clearance” (BAYER AKTIENGESELLSCHAFT, priority 1998, published 2007).

The target in data set [1] is bovine pancreatic kallikrein. The data set can be described thus: Inhibition of bovine pancreatic kallikrein, Ki. The class given is biochemical. To be noted: Table 4A; Bovine Pancreatic Kallikrein (92.0 pM). How it is done:
After 5 min. at 37° C., 15 μl of 2 mM GPK-AMC was added and the change in fluorescence (as above) was monitored. […] After 5 min. incubation at 37° C., 25 μl of 20 mM GPK-AMC was added and the change in fluorescence monitored. […] After 5 min. at 37° C. 15 μl of 20 mM PFR-AMC was added and the change in fluorescence monitored.

Data set [2] addresses T1, human neutrophil elastase (Homo sapiens, UniProt P08246).
T1 sequence (P08246 30-267): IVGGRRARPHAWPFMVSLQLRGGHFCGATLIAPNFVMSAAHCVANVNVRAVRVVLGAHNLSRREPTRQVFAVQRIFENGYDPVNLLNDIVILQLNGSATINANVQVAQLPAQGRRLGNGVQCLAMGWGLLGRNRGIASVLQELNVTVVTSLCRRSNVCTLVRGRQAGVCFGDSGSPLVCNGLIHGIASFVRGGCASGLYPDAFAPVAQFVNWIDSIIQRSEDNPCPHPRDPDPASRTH
Put plainly: Inhibition of human neutrophil elastase, Ki (Dixon plots). The class given is biochemical. To be noted: Table 4A; elastase. As for the experimental part: […] Ki values were determined from Dixon plots of the form 1/V versus performed at two different substrate concentrations (Dixon et al., 1979).

Data set [3] is described as follows: Isoelectric point by isoelectric focusing. The class given is physicochemical. How it is done: After staining, the migration distance from the cathodic edge of the gel to the different protein bands was measured. The pI of each unknown was determined by using a standard curve generated by a plot of the migration distance of standards versus the corresponding pI's. […] (Tenstad et al., 1994, Acta Physiol. Scand. 152: 33-50).

A word on the Ki: it is a measure of affinity in units of concentration, obtained from inhibition or displacement. As to `CC[C@H](C)[C@H](N)C(=O)N[C@@H](Cc1c[nH]cn1)C(=O)N[C@@H](CC(=O)O)C(=O)N[C@@H](Cc1ccccc1)C(=O)N[C@H]1CSSC[C@@H](C(=O)N[C@@H](C)C(=O)N[C@H](C(=O)N[C@H](C(=O)O)C(C)C)[C@@H](C)O)NC(=O)[C@H](CCCCN)NC(=O)[C@H](CCCCN)NC(=O)[C@H](CC(C)C)NC(=O)[C@@H]2CSSC[C@@H]3NC(=O)[C@H](CO)NC(=O)CNC(=O)[C@H](CC(=O)O)NC(=O)[C@H]([C@@H](C)O)NC(=O)[C@H](C(C)C)NC(=O)[C@H](CC(N)=O)NC(=O)[C@H](Cc4ccc(O)cc4)NC(=O)[C@H](Cc4c[nH]c5ccccc45)NC(=O)[C@H](Cc4c[nH]c5ccccc45)NC(=O)[C@H](CCCNC(=N)N)NC(=O)[C@@H]4CCCN4C(=O)[C@H](CCSC)NC(=O)[C@H](CO)NC(=O)[C@H](C)NC(=O)[C@H](CCCNC(=N)N)NC(=O)[C@H](CSSC[C@H](NC(=O)CNC(=O)CNC(=O)[C@H](Cc4ccc(O)cc4)NC(=O)[C@H](C(C)C)NC(=O)[C@H](Cc4ccccc4)NC(=O)[C@H](CC(C)C)NC(=O)[C@H](CCC(N)=O)NC3=O)C(=O)N[C@@H](CC(=O)O)C(=O)NCC(=O)N[C@@H](CC(N)=O)C(=O)N[C@@H](CO)C(=O)N[C@@H](CC(N)=O)C(=O)N[C@@H](CC(N)=O)C(=O)N[C@@H](Cc3ccc(O)cc3)C(=O)N[C@@H](CC(C)C)C(=O)N[C@@H]([C@@H](C)O)C(=O)N[C@@H](CCCCN)C(=O)N[C@@H](CCC(=O)O)C(=O)N[C@@H](CCC(=O)O)C(=O)N2)NC(=O)[C@H](CCCNC(=N)N)NC(=O)CNC(=O)[C@H](C(C)C)NC(=O)[C@H](C(C)C)NC(=O)[C@H](CCCCN)NC(=O)[C@H](CO)NC(=O)[C@H](C(C)C)NC(=O)[C@H](CC(C)C)NC1=O` [bikunin (7-64)], the inhibition constant Ki in data set [1] was 0.4 nM; in data set [2] it was greater than 100 nM. For the same compound, the pI result in data set [3] (first preparation of bikunin (7-64) (possibly not completely deprotected), migrated to the cathodic edge of the gel (pH 9.5)) is “much higher than the predicted value”; in data set [3] (refolded purified protein, Ampholine PAGplate (pH 3.5 to 9.5)), 8.85.
